Laboratory results published in patent US20120077876A1, “Method For Improved Bioactivation Of Pharmaceuticals” (Dritte Patentportfolio Beteiligungsgesellschaft Mbh & Co. KG, priority 2009, published 2012).

T1: peptidylglycine α-amidating monooxygenase (PAM) (Rattus norvegicus, UniProt P14925)
T1 construct: purchased Unigene Laboratories, Inc. (New Jersey, USA)
T1 sequence (P14925 36-871 isoform P14925-2 limits assumed): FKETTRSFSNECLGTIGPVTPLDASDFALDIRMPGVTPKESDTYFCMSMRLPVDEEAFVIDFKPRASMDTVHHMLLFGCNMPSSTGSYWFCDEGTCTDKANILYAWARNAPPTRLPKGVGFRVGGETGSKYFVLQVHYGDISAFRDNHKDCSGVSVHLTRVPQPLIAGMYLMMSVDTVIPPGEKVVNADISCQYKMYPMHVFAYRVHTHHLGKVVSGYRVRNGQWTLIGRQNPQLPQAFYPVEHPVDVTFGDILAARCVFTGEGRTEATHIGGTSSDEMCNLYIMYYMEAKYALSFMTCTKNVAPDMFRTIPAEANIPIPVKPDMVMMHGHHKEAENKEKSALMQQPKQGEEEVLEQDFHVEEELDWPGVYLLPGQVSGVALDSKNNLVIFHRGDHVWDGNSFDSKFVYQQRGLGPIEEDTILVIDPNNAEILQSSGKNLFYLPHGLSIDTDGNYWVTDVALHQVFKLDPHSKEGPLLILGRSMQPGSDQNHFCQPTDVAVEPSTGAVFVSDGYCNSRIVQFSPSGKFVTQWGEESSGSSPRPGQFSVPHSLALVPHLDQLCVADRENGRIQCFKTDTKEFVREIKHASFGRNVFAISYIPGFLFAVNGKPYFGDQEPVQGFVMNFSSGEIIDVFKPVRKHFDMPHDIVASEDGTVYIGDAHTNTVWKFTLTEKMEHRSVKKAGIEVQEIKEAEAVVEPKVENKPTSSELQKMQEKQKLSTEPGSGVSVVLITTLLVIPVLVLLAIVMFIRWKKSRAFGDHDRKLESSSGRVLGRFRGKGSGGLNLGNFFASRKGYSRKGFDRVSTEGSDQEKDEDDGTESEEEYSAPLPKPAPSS

B1: peptidylglycine α-amidating monooxygenase (PAM) (Rattus norvegicus) (protein)
chain: T1 sequence (P14925 36-871 isoform P14925-2 limits assumed)
notes: purchased Unigene Laboratories, Inc. (New Jersey, USA)

Experiments:
[1] = molecular target: T1, peptidylglycine α-amidating monooxygenase (PAM); assay: PAM assay with colorimetric determination of glyoxylate formation; type: biochemical; conditions: for formation of glyoxylate as the cleavage product of the PAM catalysis: colorimetric assay, substrate 0.1 mM or 1 mM, pH 6.0 and pH 7.4, 37° C.
Description: (§1) The recombinant peptidylglycine α-amidating monooxygenase (PAM, rat, EC 1.14.17.3) that was used was provided by Unigene Laboratories, Inc. (New jersey, USA) (specific activity=5.8 10^6 U/mg protein); bovine liver catalase (EC 1.11.1.6), specific activity=12600 U/mg solid (Aldrich).
(§2) A typical incubation batch of 300 μl (total volume) contained 25000 U/ml peptidylglycine α-amidating monooxygenase (PAM, company: Unigene Laboratories), 250 U/ml catalase, 1 μM copper(II) (employed as acetate/monohydrate), 2 mM sodium ascorbate, 5 mM potassium iodide and the respective substrate in 0.1 mM or 1 mM concentration, in buffers having different pH values. The buffer system used was 30 mM MES for the incubation at pH 6.0 and 50 mM HEPES for the incubation at pH 7.4. The pH value was adjusted in each case with diluted sodium hydroxide. The incubation was carried out at 37° C. in the shaking water bath for 60 minutes, 100 μl was withdrawn, and the reaction was stopped with 50 μl 10% TFA(aq)/acetonitrile (2:3). The remaining batch was incubated for another 180 minutes at 37° C. and stopped with 100 μl 10% TFA(aq)/acetonitrile (2:3).
(§3) The stopped samples were shaken for 5 minutes (vortexer) and frozen at −80° C. To analyze the samples, they were thawed, shaken for 5 minutes, and the precipitated protein was centrifuged at 10000 rpm. The supernatant was used for the colorimetric glyoxylate determination and/or HPLC measurement.
200 μl of the incubation batch that was freed of protein was mixed with 20 μl of a phenylhydrazine solution (20 mg in 2 ml aqua bidest.) and shaken for 5 minutes in the shaking water bath at 37° C. […] The batch was allowed to rest for 15 minutes at room temperature and 200 μl was withdrawn for the measurement using a Plate Reader (Cary 50 UV-Vis photometer, 520 nm).
For a 5-point calibration, glyoxalic acid in concentrations of 2, 5, 10, 50 and 100 μM in a 2:1 mixture of assay buffer (pH 6.0):10% TFA(aq)/acetonitrile (2:3) was measured as described above. […]

[2] = molecular target: T1, peptidylglycine α-amidating monooxygenase (PAM); assay: PAM substrate kinetics (KM and Vmax) by HPLC; type: biochemical; conditions: for Vmax value: pH 6.0, 30 minutes incubation, n=2
Description: as §1
as §2, with “The incubation was carried out at 37° C. in the shaking water bath for 60 minutes, 100 μl was withdrawn, and the reaction was stopped with 50 μl 10% TFA(aq)/acetonitrile (2:3).” left out
as §3
For the KM and Vmax determination, 100 μl batches were treated at pH 6.0 under the aforementioned conditions, however with the difference that the incubation time was 30 minutes.
HPLC Analysis for Separating O-carboxymethyl benzamidoxime (1) and benzamidoxime (2)
(§4) For the calibration, benzamidoxime was dissolved in eight concentrations of 0.1-500 μM, dissolved in assay buffer (30 mM MES, 1 μM copper(II) acetate, 2 mM sodium ascorbate, 5 mM potassium iodide, pH 6.0), and measured using the aforementioned HPLC method. […]
(§5) For the calibration, N-hydroxy-N′,N″-diphenyl guanidine (4) was dissolved in eight concentrations of 0.1-500 μM, dissolved in assay buffer (30 mM MES, […], 2 mM sodium ascorbate, 5 mM potassium iodide, pH 6.0), and measured using the aforementioned HPLC method.

[3] = test system: cytochrome P450 (CYP450); assay: CYP450 substrate study, porcine liver microsomes and 9000 g supernatant; type: in vitro ADME; conditions: pork liver enzyme sources, pH 6.0 and pH 7.4, NADH or NADPH, 60 or 180 minutes
Description: The pork livers were procured from a local butcher (Bordesholm) and the organs were transported directly after slaughter in an ice-cooled 20 mM phosphate buffer (1 mM Na2 EDTA, pH 7.4). For further processing, the liver lobes were first perfused with 50 mM phosphate buffer (1 mM Na2 EDTA, pH 7.4) and washed. The tissue was cut into pieces and run through a commercially available meat grinder. The suspension was diluted an equal volume of phosphate buffer and homogenized using a flow homogenizer. The microsomes and 9000 g supernatant were further obtained by differential ultracentrifugation. For storage, the resulting preparations were aliquotted and frozen at −80° C.
(§6) A typical incubation bath of 500 μl (total volume) contained 0.3 mg protein (pork or human liver enzyme source), 0.1 mM (or 1 mM) test compound in 100 mM phosphate buffer (pH 6.0 or pH 7.4) and 1 mM NADH (or NADPH). The incubation was started after a 5-minute pre-incubation of the enzyme and test compound in buffer, adding NADH (or NADPH), and the product was shaken for 60 minutes or 180 minutes at 37° C. in the shaking water batch. The batches were stopped by adding the same volume of acetonitrile, shaken using the vortexer, and frozen at −80° C.
To analyze the samples, they were thawed, shaken 5 minutes using the vortexer, and the protein was separated by means of 5-minute centrifugation at 10000 rpm. […]

[4] = test system: cytochrome P450 (CYP450); assay: CYP450 substrate study, human liver microsomes and 9000 g supernatant; type: in vitro ADME; conditions: human liver enzyme sources, pH 6.0 and pH 7.4, NADH or NADPH, 60 or 180 minutes
Description: To obtain human microsomes, human liver tissue from cancer patients of the surgical department of the University Clinic of Christian-Albrecht University was obtained who had to undergo hemihepatectomy.
The liver tissue pieces were flash-frozen in a saccharose-containing phosphate buffer (10 mM K2HPO4, 10 mM KH2PO4, 250 mM saccharose, 1 mM Na2 EDTA, pH 7.4, 4° C.). As soon as a sufficient quantity of organ parts (>3) was available, the corresponding pieces were thawed and pooled so as to compensate for differences due to interindividual variations. The tissue pieces were cut into smaller parts at 4° C., washed several times with buffer solution (without EDTA), and processed into a suspension using a homogenizer. The microsomes and 9000 g supernatant were further obtained from this suspension by differential ultracentrifugation. For storage, the resulting preparations were aliquotted and frozen at −80° C.
as §6, with “The batches were stopped by adding the same volume of acetonitrile, shaken using the vortexer, and frozen at −80° C.” left out

[5] = substrate: N/C(=N\OCC(=O)O)c1ccccc1; assay: PAM substrate kinetics (KM and Vmax) by HPLC; type: biochemical, rat; conditions: other: pH 6.0, 30 minutes incubation, two independent experiments (n=2), 37.0 °C
Description: as §1
as §2, with “The incubation was carried out at 37° C. in the shaking water bath for 60 minutes, 100 μl was withdrawn, and the reaction was stopped with 50 μl 10% TFA(aq)/acetonitrile (2:3). The remaining batch was incubated for another 180 minutes at 37° C. and stopped with 100 μl 10% TFA(aq)/acetonitrile (2:3).” left out
as §4, §5

[6] = substrate: O=C(O)CON=C(Nc1ccccc1)Nc1ccccc1; assay: PAM substrate kinetics (KM and Vmax) by HPLC; type: biochemical, rat; conditions: other: pH 6.0, 30 minutes incubation, two independent experiments (n=2), 37.0 °C
Description: as §1
as §2, with “The incubation was carried out at 37° C. in the shaking water bath for 60 minutes, 100 μl was withdrawn, and the reaction was stopped with 50 μl 10% TFA(aq)/acetonitrile (2:3). The remaining batch was incubated for another 180 minutes at 37° C. and stopped with 100 μl 10% TFA(aq)/acetonitrile (2:3).” left out
as §4, §5

Row | Molecule | formation of glyoxylate as the cleavage product of the PAM catalysis [1] | conversion at the pH optimum of PAM (pH 6.0) in comparison with incubation at pH 7.4 ([1]; colorimetric glyoxylate determination, FIG. 1) | Vmax value [2] | detection of O-dealkylated metabolite and its N-reduction product by HPLC [3] | detection of O-dealkylated metabolite and its N-reduction product by HPLC [4] | conversion rate in comparison with the amidoxime prodrug 1 ([2]; comparison of Vmax) | Km [5] [µM] | Km [6] [µM]
1 | N/C(=N\OCC(=O)O)c1ccccc1 [compound 1, O-carboxymethyl benzamidoxime] | verified in an concentration-dependent manner | considerably higher conversions | 393±40 nmol min^−1 mg^−1 PAM | neither benzamidoxime possible prodrug of benzamidine) nor benzamidine were detected | neither benzamidoxime possible prodrug of benzamidine) nor benzamidine were detected | – | – | –
2 | O=C(O)CON=C(Nc1ccccc1)Nc1ccccc1 [compound 3, N-carboxymethoxy-N′,N″-diphenyl guanidine] | comparable to those of the amidoxime model compound 1 | – | 373 ± 53 nmol min⁻¹ mg⁻¹ PAM | – | – | comparable | – | –
3 | B1 | – | – | – | – | – | – | 307 ± 80 | 37 ± 5
